Experiment: Cycle 1 biodistribution: SPECT/CT time-activity curves (fraction of injected activity)
Format: in vivo, human
Conditions: excluding patient 42-030
Description: This Example presents the biodistribution, dosimetry, and pharmacokinetics (PK) results of a PK/Dosimetry sub-study performed as part of a Phase III trial. Twenty-seven (27) patients were administered a target activity of 7.4±10% GBq of ^177Lu-PSMA-I&T and underwent single photon emission computed tomography (SPECT)/computed tomography (CT) imaging at four timepoints (4 h, 24 h, 48 h, and 168 h). Image data was analysed to compute time-activity curves (TACs) and subsequently time-integrated activity coefficients (TIACs) in each organ of interest and in organs showing appreciable and meaningful ^177Lu-PSMA-I&T activity. Organ Level Internal Dose Assessment (OLINDA 2.2.3) was used to compute organ and whole body absorbed radiation doses for each patient.
All participating sites underwent a rigorous site setup process during which all dose calibrators, scanners, and gamma counters used in the sub-study were calibrated. Sites were allowed to enroll patients in the sub-study only after the completion and approval of all site setup processes by Invicro. Patients underwent SPECT/CT imaging, with anatomical coverage typically extending from the salivary glands to the pelvis, following the administration of a targeted 7.4±10% GBq of ^177Lu-PSMA-I&T at cycle 1. SPECT/CT imaging was performed at four timepoints: 4 h, 24 h, 48 h, and 168 h post-injection. Additionally, a subset of patients imaged at Cycle 1 (16 out of 27), were also imaged at Cycle 3 (Table 2).
Volume of interest (VOI) (kidneys, bladder, liver, lumbar vertebrae L2-L4, lacrimal glands, salivary glands [parotid and submandibular glands], and whole body) were delineated on each dataset by a trained image analyst. […]
Clearance of the radiopharmaceutical was derived from a data-appropriate fit of each organ's TAC. […] TIACs were calculated through analytical integration of the curve fit extrapolated to infinity. […] The remainder activity was determined by subtracting the cumulative organ TIACs from the whole body TIAC. […]

whole body activity retention at 4 h, max: 78%
whole body activity retention at 4 h, min: 24%
whole body mean activity retention at 4 h: 44%±13%
SMILES: O=C(O)CC[C@H](NC(=O)N[C@@H](CCCCNC(=O)CCCCCCC(=O)NCCCC[C@@H](NC(=O)[C@@H](Cc1ccccc1)NC(=O)[C@@H](Cc1ccc(O)c(I)c1)NC(=O)CC[C@H](C(=O)O)N1CCN(CC(=O)O)CCN(CC(=O)O)CCN(CC(=O)O)CC1)C(=O)O)C(=O)O)C(=O)O [^177Lu-PSMA-I&T, (3S,7 S,26R,29R,32R,37R)-29-benzyl-32-(4-hydroxy-3-iodobenzyl)-5,13,20,28,31,34-hexaoxo-37-(4,7,10-tris(carboxymethyl)-1,4,7,10-tetraazacyclododecan-1-yl)-4,6,12,21,27,30,33-heptaazaheptatriacontane-1,3,7,26,37-pentacarboxylic acid; lutetium-177 (III), metal not drawn]
